In patent US20170143608A1, “SKIN COLOR-IMPROVING AGENT AND COMPOSITION FOR IMPROVING SKIN COLOR” (priority 2014, published 2017):

Experiments:
[1] = tested on: heme oxygenase gene (HO-1 gene); test: Expression promoting effect on heme oxygenase gene in NB1-RGB cells (quantitative real-time PCR); conditions: for Relative gene expression level HO-1: final concentration 0.2 μm, 72 hours, standardized to GAPDH, 50% ethanol control = 1.00; for expression promoting effect on HO-1 gene compared to dl-α-tocopherol acetate group (in words): compared to the group in which dl-α-tocopherol acetate was added
Procedure: (§1) Specifically, the NB1-RGB cells were prepared at a seeding density of 10,000 cells/cm^2, and were cultured for 24 hours in a DMEM medium containing 10% fetal bovine serum. […] In addition, one obtained by adding only 50% ethanol to the medium of cells was used as the control.
(§2) Next, all RNA was extracted from each cell, cDNA was synthesized, quantitative real-time PCR was performed using this cDNA as a template, and the expression levels of the HO-1 gene and UGT1A1 gene were quantified.

[2] = tested on: UDP-glucuronosyltransferase gene (UGT1A1 gene); test: Expression promoting effect on UDP-glucuronosyltransferase gene in NB1-RGB cells (quantitative real-time PCR); assay type: cell-based, human; conditions: for Relative gene expression level UGT1A1: final concentration 0.2 μm, 72 hours, standardized to GAPDH, 50% ethanol control = 1.00; for expression promoting effect on UGT1A1 gene compared to dl-α-tocopherol acetate group (in words): compared to the group in which dl-α-tocopherol acetate was added
Procedure: as §1, §2

Row | Compound | Relative gene expression level HO-1 [1] | Relative gene expression level UGT1A1 [2] | expression promoting effect on HO-1 gene compared to the control (in words) [1] | expression promoting effect on HO-1 gene compared to dl-α-tocopherol acetate group (in words) [1] | expression promoting effect on UGT1A1 gene compared to the control (in words) [2] | expression promoting effect on UGT1A1 gene compared to dl-α-tocopherol acetate group (in words) [2]
1 | CC(=O)Oc1c(C)c(C)c2c(c1C)CCC(C)(CCCC(C)CCCC(C)CCCC(C)C)O2 (racemic) [dl-α-tocopherol acetate, reference compound] | 0.97 | 34.84 | – | – | – | –
2 | Cc1c(C)c2c(c(C)c1OP(=O)([O-])[O-])CCC(C)(CCCC(C)CCCC(C)CCCC(C)C)O2.[Na+].[Na+] (stereo not drawn) [sodium α-tocopheryl phosphate] | 1.40 | 59.11 | expression promoting effect | higher expression promoting effect | expression promoting effect | higher expression promoting effect
3 | Cc1c(OP(=O)([O-])[O-])cc2c(c1C)O[C@](C)(CCC[C@H](C)CCC[C@H](C)CCCC(C)C)CC2.[Na+].[Na+] [sodium γ-tocopheryl phosphate] | 1.21 | 42.98 | expression promoting effect | higher expression promoting effect | expression promoting effect | higher expression promoting effect
